# Test results taken from patent publication US12433875B2, “(R)-4-(1-(6-(4-(trifluoromethyl)benzyl)-6-azaspiro[2.5]octane-5-carboxamido)-cyclopropyl) benzoic acid or its salt also in polymorphic form a for use in the prevention of heterotopic ossification” (ROTTAPHARM BIOTECH S.R.L., priority 2019, dated 2025).
# Key:
# [1] = test system: human osteoblasts from patients with Osteoarthritis; assay: Pathological osteoblast proliferation induced by IL-1β, MTT assay; type: cell-based; conditions: IL-1β 2 ng/ml; time course 24 h, 6, 9 and 14 days; low concentrations; FIG. 11
# Protocol: Human osteoblasts were purified from material obtained from patients undergoing knee replacement. Trabecular bone cells were isolated by spontaneous outgrowth culture methods. Purified osteoblasts were stimulated with IL-1β 2 ng/ml. Osteoblast proliferation was studied by MTT analysis in time course experiments (24 h, 6, 9, and 14 days). The form A of the sodium salt of (R)-4-(1-(6-(4-(trifluoromethyl)benzyl)-6-azaspiro[2.5]octane-5-carboxamido)cyclopropyl)benzoic acid resulted to be extremely effective in preventing in vitro osteoblast proliferation stimulated by IL1b.
# This model has been performed to understand if the compound of the invention could correct the pathological hyperproliferation of osteoblasts taken from patients suffering from degenerative pathologies eventually resulting in a total joint replacement surgical procedure.
# Trabecular bone of the tibial plateau was obtained from patients with Osteoarthritis (OA) undergoing joint replacement surgery. This material was purchased from Alphenyx (Marseille, France). […] The cell proliferation was analysed in a time course protocol by MTT assay. […] MTT was a tetrazolium salt especially useful to quantify living metabolically active cells. […] The plate was then read at λ=540 nm. […]
# [2] = test system: PBMC's from healthy volunteers (Th17 IL-17F memory cells); assay: Human T-helper (Th) cell polarization, flow cytometry; type: cell-based; conditions: 100 nM; rIL-2 and rIL-21 5 ng/ml, anti-CD3 and anti-CD28 1.5 ng/ml, PGE2 30 nM, 48 hour; FIG. 12
# Protocol: FIG. 12a is the spydergram illustrating the preferential inhibitory effect of the form A of the sodium salt of (R)-4-(1-(6-(4-(trifluoromethyl)benzyl)-6-azaspiro[2.5]octane-5-carboxamido)cyclopropyl)benzoic acid on Th17 polarization towards Th17 IL-17F memory cells induced by a stimulation with rIL-2 and rIL-21 (both at 5 ng/ml) in combination with anti-CD3 and anti-CD28 (both at 1.5 ng/ml) co-stimulated with PGE2 (30 nM) over a 48 hour. Stimulated cells were normalized to 100%.
# FIG. 12b represents the percent of Th17 IL-17F memory cell stimulation (mean±sem) of cells taken by individual donors vs. their baseline levels in the absence or in the presence of 100 nM form A of the sodium salt of (R)-4-(1-(6-(4-(trifluoromethyl)benzyl)-6-azaspiro[2.5]octane-5-carboxamido)cyclopropyl)benzoic acid.
# In this model the ability of the Form A of the sodium salt of (R)-4-(1-(6-(4-(trifluoromethyl)benzyl)-6-azaspiro[2.5]octane-5-carboxamido)cyclopropyl)benzoic acid to interacts with the immunological features able to influence pathological bone formation was studied. Specifically, the effect of the Form A of the sodium salt of (R)-4-(1-(6-(4-(trifluoromethyl)benzyl)-6-azaspiro[2.5]octane-5-carboxamido)cyclopropyl)benzoic acid on the Th-cell polarization in human Tcells stimulated by inflammatory agents was studied. […]
smiles,measurement,setting,value
"O=C([O-])c1ccc(C2(NC(=O)[C@H]3CC4(CCN3Cc3ccc(C(F)(F)F)cc3)CC4)CC2)cc1.[Na+] [Form A, sodium (R)-4-(1-(6-(4-(trifluoromethyl)benzyl)-6-azaspiro[2.5]octane-5-carboxamido)cyclopropyl)benzoate]",osteoblast proliferation (MTT),[1],able to dose-dependently counteract osteoblast proliferation
same,polarization of Th17 cells towards IL-17F producing population (Th17 IL-17F memory cells),[2],reduce significantly the polarization of Th17 cells towards a population capable to produce IL-17F
